This series addresses T1, L-aspartate-α-decarboxylase (Escherichia coli, UniProt P0A790).
T1 construct: expressed in transfected cells; host or cells: E. coli W3110 transformed with pIF309 = strain NS3291 (ATCC 98675), whole cells
Briefly: Activity towards D/L-glutamate and D/L-alanine, D/L-aspartate as control (Example 8). It counts as biochemical, E. coli K12. The following applies: racemate substrate, pH 7.0. The procedure:
D/L-aspartate was run as a control.
Substrates were prepared by dissolving solid amino acid racemate in approximately 75 ml deionized H2 O and adjusting the pH to 7.0 with 10N NaOH. The volume was then brought to 100 ml with deionized H2 O. The cells used were stored frozen for about 1 month and then thawed and stored in a refrigerator for about 1 month prior to running the experiments.
The reaction was run the same as described in the prior Examples. Samples of supernatant fluid, approximately 0.20 ml, were removed over time, centrifuged and stored frozen before analysis by HPLC as described in the prior Examples.

As to `C[C@H](N)C(=O)O` [L-Ala], the “concentration in supernatant fluid” value reads like this: (0 hr) 19.320 mg/mL; (3.5 hr) 18.960 mg/mL; (8.5 hr) 18.730 mg/mL; (24 hr) 18.320 mg/mL; (55 hr) 17.830 mg/mL. For the same compound, the percent remaining reads like this: (3.5 hr) 98.137%; (8.5 hr) 96.946%; (24 hr) 94.824%; (55 hr) 92.288%.

For the compound `N[C@@H](CCC(=O)O)C(=O)O` [L-Glu], the “concentration in supernatant fluid” value (0 hr) turned out to be 29.350 mg/mL; the “concentration in supernatant fluid” value (3.5 hr) was 28.400 mg/mL; the “concentration in supernatant fluid” value (8.5 hr) came out at 28.740 mg/mL; the “concentration in supernatant fluid” value (24 hr) turned out to be 28.200 mg/mL; the “concentration in supernatant fluid” value (55 hr) was determined as 28.000 mg/mL. Also, the percent remaining is, setting by setting: (3.5 hr) 96.763%; (8.5 hr) 97.922%; (24 hr) 96.082%; (55 hr) 95.400%.

Regarding `C[C@@H](N)C(=O)O` [D-Ala], the “concentration in supernatant fluid” value (0 hr) turned out to be 19.190 mg/mL; the “concentration in supernatant fluid” value (3.5 hr) came out at 18.590 mg/mL; the “concentration in supernatant fluid” value (8.5 hr) came to 18.370 mg/mL; the “concentration in supernatant fluid” value (24 hr) was determined as 17.930 mg/mL; the “concentration in supernatant fluid” value (55 hr) came to 17.580 mg/mL. Further, the percent remaining by setting is: (3.5 hr) 96.873%; (8.5 hr) 95.727%; (24 hr) 93.434%; (55 hr) 91.610%.

As to `N[C@H](CCC(=O)O)C(=O)O` [D-Glu], the “concentration in supernatant fluid” value by setting is: (0 hr) 29.440 mg/mL; (3.5 hr) 29.010 mg/mL; (8.5 hr) 29.520 mg/mL; (24 hr) 29.350 mg/mL; (55 hr) 29.840 mg/mL. Further, the percent remaining is recorded as 98.539% (3.5 hr), 100.27% (8.5 hr), 99.694% (24 hr) and 101.36% (55 hr).

For the origin of these results see patent US5834259A, “Process and composition for preparing D-aspartic acid” (Monsanto Company, priority 1996, dated 1998).
